Test results: the NIST ThermoML archive (doi:10.1021/je050509f)
± gives the expanded uncertainty stated by the source.

Test: mn = molality of the nth substance listed, in mol/kg
Details: Liquid, Vibrating tube method

Work on `[Cl-].[Cl-].[Zn+2]` [zinc chloride] + CO yielded a mass density (298.27 K, 170 kPa, m1 = 0.8018) of 861.37 ± 0.42 kg/m3, a mass density (298.27 K, 188 kPa, m1 = 0.4768) of 833.84 ± 0.42 kg/m3 and a mass density (298.27 K, 200 kPa, m1 = 5.367) of 1205.67 ± 0.43 kg/m3. The mass density (298.27 K, 203 kPa, m1 = 1.039) was 881.26 ± 0.42 kg/m3, the mass density (298.27 K, 205 kPa, m1 = 0.1348) was 801.32 ± 0.43 kg/m3 and the mass density (298.27 K, 205 kPa, m1 = 1.977) was 959.59 ± 0.42 kg/m3. The mass density (298.27 K, 4983 kPa, m1 = 5.367) was 1209.53 ± 0.44 kg/m3, the mass density (298.27 K, 4985 kPa, m1 = 1.039) was 885.56 ± 0.42 kg/m3 and the mass density (298.27 K, 4994 kPa, m1 = 0.4768) was 838 ± 0.43 kg/m3. The mass density (298.27 K, 4996 kPa, m1 = 0.8018) was 865.98 ± 0.43 kg/m3, the mass density (298.27 K, 5004 kPa, m1 = 0.1348) was 805.97 ± 0.44 kg/m3 and the mass density (298.27 K, 5014 kPa, m1 = 1.977) was 963.97 ± 0.42 kg/m3. The mass density (298.27 K, 9992 kPa, m1 = 5.367) was 1213.48 ± 0.46 kg/m3, the mass density (298.27 K, 9995 kPa, m1 = 0.8018) was 870.53 ± 0.43 kg/m3 and the mass density (298.27 K, 9996 kPa, m1 = 1.977) was 968.35 ± 0.42 kg/m3. The mass density (298.27 K, 9997 kPa, m1 = 1.039) was 889.93 ± 0.43 kg/m3, the mass density (298.27 K, 10000 kPa, m1 = 0.1348) was 810.57 ± 0.45 kg/m3 and the mass density (298.27 K, 10004 kPa, m1 = 0.4768) was 841.99 ± 0.44 kg/m3. The mass density (298.27 K, 14982 kPa, m1 = 0.4768) was 845.9 ± 0.45 kg/m3, the mass density (298.27 K, 14987 kPa, m1 = 1.039) was 894.12 ± 0.43 kg/m3 and the mass density (298.27 K, 14995 kPa, m1 = 5.367) was 1217.3 ± 0.47 kg/m3. It also gave a mass density (298.27 K, 14997 kPa, m1 = 1.977) of 972.58 ± 0.42 kg/m3, a mass density (298.27 K, 15000 kPa, m1 = 0.8018) of 874.88 ± 0.44 kg/m3 and a mass density (298.27 K, 15010 kPa, m1 = 0.1348) of 814.96 ± 0.46 kg/m3. The mass density (298.27 K, 19985 kPa, m1 = 1.039) was 898.15 ± 0.44 kg/m3, the mass density (298.27 K, 19988 kPa, m1 = 5.367) was 1221.03 ± 0.5 kg/m3 and the mass density (298.27 K, 19989 kPa, m1 = 1.977) was 976.63 ± 0.42 kg/m3. It also gave a mass density (298.27 K, 20001 kPa, m1 = 0.8018) of 879.03 ± 0.44 kg/m3, a mass density (298.27 K, 20007 kPa, m1 = 0.1348) of 819.13 ± 0.47 kg/m3 and a mass density (298.27 K, 20018 kPa, m1 = 0.4768) of 849.66 ± 0.46 kg/m3. For the same compound, the mass density (298.27 K, 24988 kPa, m1 = 0.8018) was 883.01 ± 0.45 kg/m3, the mass density (298.27 K, 24993 kPa, m1 = 1.977) was 980.56 ± 0.42 kg/m3 and the mass density (298.27 K, 24996 kPa, m1 = 5.367) was 1224.68 ± 0.52 kg/m3. For the same compound, the mass density (298.27 K, 24999 kPa, m1 = 0.1348) was 823.11 ± 0.48 kg/m3, the mass density (298.27 K, 25003 kPa, m1 = 1.039) was 902.02 ± 0.44 kg/m3 and the mass density (298.27 K, 25032 kPa, m1 = 0.4768) was 853.57 ± 0.47 kg/m3. The mass density (298.27 K, 29990 kPa, m1 = 1.977) was 984.35 ± 0.42 kg/m3, the mass density (298.27 K, 29994 kPa, m1 = 5.367) was 1228.21 ± 0.55 kg/m3 and the mass density (298.27 K, 30002 kPa, m1 = 0.1348) was 826.95 ± 0.5 kg/m3. It also gave a mass density (298.27 K, 30004 kPa, m1 = 0.4768) of 857.56 ± 0.48 kg/m3, a mass density (298.27 K, 30004 kPa, m1 = 0.8018) of 886.87 ± 0.46 kg/m3 and a mass density (298.27 K, 30007 kPa, m1 = 1.039) of 905.8 ± 0.45 kg/m3. The mass density (298.27 K, 34983 kPa, m1 = 1.039) was 909.4 ± 0.45 kg/m3, the mass density (298.27 K, 34992 kPa, m1 = 0.8018) was 890.56 ± 0.47 kg/m3 and the mass density (298.27 K, 34993 kPa, m1 = 0.1348) was 830.61 ± 0.51 kg/m3. For the same compound, the mass density (298.27 K, 34993 kPa, m1 = 0.4768) was 862.15 ± 0.49 kg/m3, the mass density (298.27 K, 34996 kPa, m1 = 5.367) was 1231.68 ± 0.58 kg/m3 and the mass density (298.27 K, 35014 kPa, m1 = 1.977) was 988.04 ± 0.42 kg/m3. The mass density (298.27 K, 39991 kPa, m1 = 1.039) was 912.9 ± 0.46 kg/m3, the mass density (298.27 K, 39994 kPa, m1 = 1.977) was 991.58 ± 0.42 kg/m3 and the mass density (298.27 K, 39994 kPa, m1 = 5.367) was 1235.1 ± 0.62 kg/m3. The mass density (298.27 K, 39997 kPa, m1 = 0.4768) was 866.01 ± 0.5 kg/m3, the mass density (298.27 K, 39997 kPa, m1 = 0.8018) was 894.15 ± 0.47 kg/m3 and the mass density (298.27 K, 40006 kPa, m1 = 0.1348) was 834.16 ± 0.53 kg/m3. The mass density (323.24 K, 207 kPa, m1 = 0.4768) was 808.23 ± 0.43 kg/m3, the mass density (323.24 K, 209 kPa, m1 = 0.1348) was 777.17 ± 0.43 kg/m3 and the mass density (323.24 K, 209 kPa, m1 = 5.367) was 1172.87 ± 0.43 kg/m3. For the same compound, the mass density (323.24 K, 220 kPa, m1 = 1.039) was 855.22 ± 0.42 kg/m3, the mass density (323.24 K, 230 kPa, m1 = 1.977) was 931.65 ± 0.42 kg/m3 and the mass density (323.24 K, 233 kPa, m1 = 0.8018) was 835.94 ± 0.42 kg/m3. For the same compound, the mass density (323.24 K, 4983 kPa, m1 = 0.8018) was 841.09 ± 0.43 kg/m3, the mass density (323.24 K, 4985 kPa, m1 = 0.4768) was 813.47 ± 0.43 kg/m3 and the mass density (323.24 K, 4990 kPa, m1 = 0.1348) was 782.51 ± 0.44 kg/m3. It also gave a mass density (323.24 K, 4993 kPa, m1 = 1.977) of 936.57 ± 0.42 kg/m3, a mass density (323.24 K, 4994 kPa, m1 = 1.039) of 860.28 ± 0.43 kg/m3 and a mass density (323.24 K, 4999 kPa, m1 = 5.367) of 1177.21 ± 0.44 kg/m3. It also gave a mass density (323.24 K, 9985 kPa, m1 = 1.977) of 941.48 ± 0.42 kg/m3.
